Data published in US6362226B1, “Modulation of in vivo glutamine and glycine levels in the treatment of autism” (Vanderbilt University, priority 1999, dated 2002).

Test system: autistic patients
Test: Open-label dextromethorphan treatment of autistic patients B and F with elevated plasma glutamine and/or glycine, rated by treatment-blinded observers
Type: in vivo, human
From the text: Autistic patients were screened for elevated plasma levels of glutamine or glycine, or both. Five of 36 patients had elevated levels of either or both amino acids. One patient, “B”, had been diagnosed as having autism […] and 10 months. […] Further, B had elevated levels of glutamine in their cerebrospinal fluid, although their glycine levels were within the normal range. Their routine chemistry lab tests, including their urine organic acid profile, were normal. Patient “F” had persistent elevated glycine levels on multiple amino acid profiles which ranged from 324 to 439 μmol/L, where normal levels are from 120 to 315 μmol/L.
Both patients B and F were treated with dextromethorphan at 5 mg/kg body weight/day in the form of a cough and cold preparation sold under the registered trademark DELSYM® by McNeilLab, Inc. of Spring House, Pa., divided BID.
Example 1 discloses that 5/36 (14%) of children with autism have increased plasma levels of glutamine, glycine or both glutamine and glycine. In Example 1, an autistic patient with elevated glutamine and glycine and an autistic patient with glycine were treated with DM at 5 mg/kg body weight/day. […] The procedures of Example 1, however, were uncontrolled and open-label. In Example 2, treatment of children with autism with PB, SB or combinations of PB, SB and DM is systematically evaluated.

SMILES: COc1ccc2c(c1)[C@]13CCCC[C@@H]1[C@H](C2)N(C)CC3 [dextromethorphan]
- response upon resumption of long-term dextromethorphan treatment (patients B and F): responded as before and have continued to respond
- expressive and receptive language skills, attention span and focus, motor planning and socialization with peers (patients B and F, 5 mg/kg body weight/day divided BID as DELSYM, teachers and therapists blinded to treatment): significant improvement
- behavior after withdrawal of dextromethorphan treatment (patients B and F, treatment-blinded observers, all areas previously improved): regression in all of these areas of behavior measurement
- autistic behavior (two autistic patients, DM 5 mg/kg body weight/day, uncontrolled, open-label): clinical improvement
